This is an account of results in ChEMBL document CHEMBL6109115, “Rapid discovery of pseudorabies virus inhibitors repurposed from the antimicrobial agent ciprofloxacin” (Eur J Med Chem, 2025).

Data set [1] has as its system Suid alphaherpesvirus 1. The data set is described as follows: Antiviral activity against Suid alphaherpesvirus 1. It is filed as functional, organism-based.
Data set [2] in a line: Cytotoxicity against pig PK-15 cells. It is filed as toxicity, cell-based, Sus scrofa.
Data set [3] has as its system Suid alphaherpesvirus 1. The data set is described as follows: Antiviral activity against Suid alphaherpesvirus 1 infected in pig PK-15 cells assessed as inhibition of replication pretreated with compound for 2 hrs followed by viral infection and measured after 48 hrs. The note with it: Suid alphaherpesvirus 1, PK-15. It is filed as functional, organism-based.
In data set [4] the test system is Suid alphaherpesvirus 1. The data set is described as follows: Antiviral activity against Suid alphaherpesvirus 1 infected in pig PK-15 cells assessed as inhibition of viral growth. It is filed as functional. The settings on record: Suid alphaherpesvirus 1, in Sus scrofa.
For data set [5], the system named is Suid alphaherpesvirus 1. The data set is described as follows: Antiviral activity against Suid alphaherpesvirus 1 infected in pig PK-15 cells assessed as inhibition of viral replication. It is filed as functional, organism-based. The note with it: Suid alphaherpesvirus 1, PK-15.
Data set [6] can be described thus: Cytotoxicity against pig PK-15 cells assessed as cell viability incubated for 72 hrs by CCK-8 assay. It is filed as toxicity, cell-based, Sus scrofa. (In general: Tetrazolium assays rely on reduction of a dye to a coloured formazan, in cell work by metabolically active cells.)
Data set [7] relates to Suid alphaherpesvirus 1. The data set is described as follows: Antiviral activity against Suid alphaherpesvirus 1 infected in pig PK-15 cells assessed as inhibition of replication at >200 nM pretreated with compound for 2 hrs followed by viral infection and measured after 48 hrs. It is filed as functional. The settings on record: time 50 hrs.
The test system of data set [8] is Suid alphaherpesvirus 1. The data set is described as follows: Antiviral activity against Suid alphaherpesvirus 1 infected in pig PK-15 cells assessed as inhibition of replication at 1 uM pretreated with compound for 2 hrs followed by viral infection and measured after 48 hrs (reference value: 99.6%). The note with it: Suid alphaherpesvirus 1, PK-15, in Sus scrofa, time 50 hrs. It is filed as functional.

Data set [9] deals with Suid alphaherpesvirus 1. The data set is described as follows: Antiviral activity against Suid alphaherpesvirus 1 infected in pig PK-15 cells infected for 1 hr followed by compound addition and measured after 48 hrs. It is filed as functional, organism-based. The settings on record: Suid alphaherpesvirus 1, PK-15.
Data set [10] can be described thus: Half life in male Kunming mouse at 30 mg/kg, ip measured upto 8 hrs by LC-MS/MS analysis. It is filed as ADME, organism-based. The settings on record: in vivo.
The nature of data set [11]: Tmax in male Kunming mouse at 30 mg/kg, ip measured up to 8 hrs by LC-MS/MS analysis. It is filed as ADME, organism-based. The note with it: in vivo.
The nature of data set [12]: Cmax in male Kunming mouse at 30 mg/kg, ip measured up to 8 hrs by LC-MS/MS analysis. It is filed as ADME, organism-based. The note with it: in vivo.
A short description of data set [13]: AUC (0 to t) in male Kunming mouse at 30 mg/kg, ip measured up to 8 hrs by LC-MS/MS analysis. It is filed as ADME, organism-based. The settings on record: in vivo.
A short description of data set [14]: AUC (0 to infinity) in male Kunming mouse at 30 mg/kg, ip measured up to 8 hrs by LC-MS/MS analysis. It is filed as ADME, organism-based. The settings on record: in vivo.
Data set [15] is described as follows: MRT (0 to t) in male Kunming mouse at 30 mg/kg, ip measured up to 8 hrs by LC-MS/MS analysis. It is filed as ADME, organism-based. The note with it: in vivo.
A short description of data set [16]: MRT (0 to infinity) in male Kunming mouse at 30 mg/kg, ip measured up to 8 hrs by LC-MS/MS analysis. It is filed as ADME, organism-based. The settings on record: in vivo.
Data set [17] deals with Suid alphaherpesvirus 1. The data set is described as follows: Antiviral activity against Suid alphaherpesvirus 1 infected in Kunming mouse assessed as survival at 30 mg/kg, ip measured at 7.3 days. The note with it: time 7.3 day. It is filed as functional, organism-based.
Data set [18] concerns Suid alphaherpesvirus 1. The data set is described as follows: Antiviral activity against Suid alphaherpesvirus 1 infected in Kunming mouse assessed as reduction in viral copy numbers in blood at 30 mg/kg, ip measured on day 6 by qPCR analysis. It is filed as functional, organism-based. The settings on record: time 6.0 day. Background: Quantitative PCR measures a nucleic acid by following its amplification.

Data set [19] has as its system Suid alphaherpesvirus 1. The data set is described as follows: Antiviral activity against Suid alphaherpesvirus 1 infected in Kunming mouse assessed as reduction in viral copy numbers in brain at 30 mg/kg, ip measured on day 6 by qPCR analysis. It is filed as functional. The settings on record: time 6 day.
Data set [20] deals with Suid alphaherpesvirus 1. The data set is described as follows: Antiviral activity against Suid alphaherpesvirus 1 infected in Kunming mouse assessed as inhibition of viral copy numbers in brain at 30 mg/kg, ip measured on day 6 by qPCR analysis. The settings on record: Suid alphaherpesvirus 1, 144 h, time 6 day. It is filed as functional.
Data set [21] relates to Suid alphaherpesvirus 1. The data set is described as follows: Antiviral activity against Suid alphaherpesvirus 1 infected in pig PK-15 cells. The note with it: Suid alphaherpesvirus 1, PK-15. It is filed as functional, organism-based.
The subject of data set [22] is Suid alphaherpesvirus 1. The data set is described as follows: Antiviral activity against Suid alphaherpesvirus 1 infected in pig PK-15 cells assessed as inhibition of viral replication pretreated with compound for 2 hrs followed by viral infection and measured after 24 hrs by ELISA analysis. It is filed as functional, organism-based. The note with it: Suid alphaherpesvirus 1, PK-15. (In general: In an ELISA, binding on a coated surface is turned into a signal by an enzyme label.)

≈ marks a conversion by molar mass, not a printed value. Calls of active or inactive are those of the source. No cut-off for these calls is given here.

Usually EC50 stands for the concentration at which the effect is half-maximal. By CC50 is commonly meant the concentration at which the toxic effect on the cells reaches its halfway point. `Cn1cc(C(=O)NCc2ccc(Cl)cc2)c(=O)c2cc(CN3CCOCC3)ccc21`: the EC50 with Suid alphaherpesvirus 1 [1] was 0.1 nM; in the data set on Suid alphaherpesvirus 1 [3], 1.45 nM. For the same compound, the CC50 in data set [2] turned out to be 45200 nM. Further, the MIC80 in the data set with Suid alphaherpesvirus 1 [4] was 0.32 nM (≈ 0.136 ng/mL).
Regarding `O=C(NCc1cc(Cl)ccn1)c1cn(C2CC2)c2cc(N3CCNCC3)c(F)cc2c1=O`, the EC50 in the data set on Suid alphaherpesvirus 1 [3] amounted to 0.39 nM. Besides, the MIC80 in the data set with Suid alphaherpesvirus 1 [4] was found to be 8 nM (≈ 3.65 ng/mL).
For the compound `O=C(NCc1cc(Cl)ccc1F)c1cn(Cc2ccccc2)c2cc(N3CCNCC3)c(F)cc2c1=O`, in the data set with Suid alphaherpesvirus 1 [3], the 50% effective concentration (EC50) was found to be 2.11 nM. In addition, the MIC80 in the data set on Suid alphaherpesvirus 1 [4] was found to be 40 nM (≈ 20.9 ng/mL).
Turning to `CCn1cc(C(=O)NCc2cccc(Cl)c2)c(=O)c2cc(F)c(N3CCNCC3)cc21`, the EC50 in the data set with Suid alphaherpesvirus 1 [3] amounted to 0.85 nM. For the same compound, the MIC80 in the data set with Suid alphaherpesvirus 1 [4] stood at 8 nM (≈ 3.54 ng/mL).
Take `CN(C)CCNC(=O)c1cn(C)c2ccc(CN3CCOCC3)cc2c1=O`: the EC50 in the data set on Suid alphaherpesvirus 1 [5] stood at 0.014 nM. In addition, it took 344000 nM to reach half-maximal cytotoxicity in data set [2] (CC50).
For the compound `CCCCCC/C=C\CCCCCCCc1cccc(O)c1C(=O)O` [GINGKOLIC ACID], the midpoint of the response in the data set on Suid alphaherpesvirus 1 [1], the EC50, lay at 3400 nM.
On to `O=C(NCc1cc(Cl)ccc1F)c1cn(C2CC2)c2cc(N3CCNCC3)c(F)cc2c1=O`, for which the EC50 in the data set with Suid alphaherpesvirus 1 [3] turned out to be 0.21 nM. The CC50 at 72 h in data set [6] was above 100000 nM. The MIC80 with Suid alphaherpesvirus 1 [4] amounted to 1.6 nM (≈ 0.757 ng/mL). Besides, the “inhibition (INH)” value in the data set with Suid alphaherpesvirus 1 [7] is on record as “<=99.5%”.
The inhibition is the change of the read-out against control, counted positive when it falls. In the case of `O=C(O)c1cn(C2CC2)c2cc(N3CCNCC3)c(F)cc2c1=O` [CIPROFLOXACIN], the inhibition at 1 µM in the data set on Suid alphaherpesvirus 1 [8] came to 65%.
`O=C(NCc1ccc(Cl)cc1)c1cn(C2CC2)c2cc(N3CCNCC3)c(F)cc2c1=O`: the concentration giving a half-maximal response (EC50) with Suid alphaherpesvirus 1 [3] turned out to be 2.21 nM. In addition, in [6], the CC50 at 72 h came out at 9300 nM. For the same compound, in the data set on Suid alphaherpesvirus 1 [4], the MIC80 is 200 nM (≈ 91 ng/mL).
In turn, `Cc1cc(O)c2c(c1)C(=O)c1cc(O)cc(O)c1C2=O` [EMODIN] registered an EC50 in the data set with Suid alphaherpesvirus 1 [9] of 470 nM.
With `O=C(NCc1cc(Cl)ccc1Cl)c1cn(C2CC2)c2cc(N3CCNCC3)c(F)cc2c1=O`, the EC50 in the data set with Suid alphaherpesvirus 1 [3] is 0.71 nM. For the same compound, the MIC80 with Suid alphaherpesvirus 1 [4] is 8 nM (≈ 3.92 ng/mL).
The compound `Oc1ccc(O)cc1` [HYDROQUINONE] had an EC50 in the data set with Suid alphaherpesvirus 1 [1] of 8300 nM.
For `O=C(NCc1ccc(Cl)c(Cl)c1)c1cn(C2CC2)c2cc(N3CCNCC3)c(F)cc2c1=O`, the EC50 with Suid alphaherpesvirus 1 [3] worked out at 0.25 nM. In addition, the MIC80 with Suid alphaherpesvirus 1 [4] was determined as 8 nM (≈ 3.92 ng/mL).
Turning to `CCn1cc(C(=O)O)c(=O)c2cc(F)c(N3CCNCC3)cc21` [NORFLOXACIN], the inhibition at 1 µM with Suid alphaherpesvirus 1 [8] is 66%.
What is called half-life is how long it takes for the measured level to halve. By Tmax is commonly meant the time from dosing to the highest level. Broadly, the Cmax is the peak of the concentration-time curve. One may read the AUC(0-t) as exposure summed from dosing to a finite time, without extrapolation to infinity. High values mean more exposure, low ones less exposure. In general, AUC(0-inf) refers to total exposure, with the tail of the curve extrapolated. A lower AUC(0-inf) goes with less exposure. By MRT last is commonly meant the average time that molecules of a dose stay in the body. As a reminder, the MRT inf is a mean duration of stay, worked out from the concentration-time curve. The term inhibition in vivo denotes the change of the read-out against control, counted positive when it falls. Regarding `O=C(NCc1cc(Cl)ccc1F)c1cn(-c2ccccc2)c2cc(N3CCNCC3)c(F)cc2c1=O`, the EC50 with Suid alphaherpesvirus 1 [3] came out at 0.29 nM. Also, the MIC80 in the data set on Suid alphaherpesvirus 1 [4] was 1.6 nM (≈ 0.814 ng/mL). For the same compound, in the data set with Suid alphaherpesvirus 1 [7], the “inhibition (INH)” value is “<=99.5%”. The same compound had a half-life in [10] of 3.24 h. Also, the Tmax in data set [11] is 1.5 h. This compound displayed a Cmax in data set [12] of 342 ng/mL. The same compound returned an AUC(0-t) at 8 h in data set [13] of 1020 ng·h/mL. Moreover, in [14], the AUC(0-inf) is 1330 ng·h/mL. In addition, in data set [15], the mean residence time (MRT last) at 8 h is 3.15 h. This compound also returned an MRT inf in [16] of 5.34 h. In addition, the outcome with Suid alphaherpesvirus 1 [17] and with Suid alphaherpesvirus 1 [18] was Active. In addition, the Activity with Suid alphaherpesvirus 1 [19] came to 280 g⁻¹. Also, the inhibition in vivo at 30 mg/kg in the data set with Suid alphaherpesvirus 1 [20] was above 99%.
Take `O=C(NCc1cccc(Cl)c1)c1cn(C2CC2)c2cc(N3CCNCC3)c(F)cc2c1=O`: in the data set on Suid alphaherpesvirus 1 [3], the EC50 was 10.2 nM. In addition, the MIC80 with Suid alphaherpesvirus 1 [4] was determined as 40 nM (≈ 18.2 ng/mL).
Regarding `Oc1cc(O)cc(/C=C/c2ccc(O)c(O)c2)c1` [PICEATANNOL], the half-maximal effective concentration (EC50) in the data set with Suid alphaherpesvirus 1 [21] came to 126 nM.
With `C[C@]12CC[C@H](O)C[C@H]1CC[C@@H]1[C@@H]2CC[C@]2(C)[C@@H](c3ccc(=O)oc3)CC[C@]12O` [BUFALIN], the half-maximal effective concentration (EC50) in the data set on Suid alphaherpesvirus 1 [22] was determined as 33 nM.
